Experimental data taken from US20150236379A1, “ADDITIVES FOR GALVANIC CELLS” (ROCKWOOD LITHIUM GMBH, priority 2012, published 2015).
Read-outs that look alike come from different tables or passages of the source.

What was measured:
[1] = Additive salt solubility in lithium conducting salt electrolyte solutions
[2] = Solubility in conventional battery solvents; type: physicochemical
Source text: This was not to be expected, since it is known that many Cs salts having large, weakly coordinating anions are relatively poorly soluble in water (A. Nadjafi, Microchim. Acta 1973, 689-696).
The abbreviation BOB stands for bis-(oxalato)borate (C4O8B)^−, BMB for bis-(malonato)borate (C6H4O8B)^−, NMP for N-methylpyrrolidone, EC for ethylene carbonate, DMC for dimethyl carbonate, EMC for ethyl methyl carbonate and PC for propylene carbonate.

[3] = Cs content (FES) in filtered electrolyte solution after stirring with excess additive; type: physicochemical; details: stirred 24 h, membrane filtered
Method: (§1) In an Ar-filled glove box, 10 g of an 11 wt.-% LiBOB solution in ethylene carbonate/ethylmethyl carbonate (1:1, wt./wt.) was mixed with 0.32 g CsBOB and magnetically stirred for 24 h. The suspension was then filter-clarified by membrane filtration ([…] PTFE). • Cs content (FES) in the electrolyte solution: 0.05 wt.-%
as §1, with “a 10 wt-% […]” for “an 11 wt.-% LiBOB”, “0.47” for “0.32”, “CsClO4” for “CsBOB”, “0.07” for “0.05”

[4] = cited from earlier work
[5] = Thermal stability, thermogravimetric experiment under argon flow; type: physicochemical
Method: In a 1-L round-bottom glass flask, 38.67 g boric acid and […] oxalic acid dihydrate were suspended in 121 g water. 102.9 g cesium carbonate was added in portions, with magnetic stirring (vigorous foaming due to CO2 generation). After the addition was complete, the white suspension was evaporated on a rotary evaporator, initially at 100° C. and 400 mbar. The colorless solid residue was then ground and subjected to final drying at 180° C. and 20 mbar for 3 h. • Yield: 197.3 g of colorless powder (97% of theoretical) • Cs content: 41.0% • […] ^11B=7.4 ppm (solution in DMSO-d6) • Thermal stability: 290° C. (onset of thermal decomposition in the thermogravimetric experiment under argon flow)

[6] = supporting electrolyte LiBOB, 10% EC/EMC
[7] = supporting electrolyte LiPF6, 10% EC/EMC

Compound | Additive Salt Solubility [1, 6] [mM] | Additive Salt Solubility (wt.-%) [1, 6] [wt.-%] | Additive Salt Solubility [1, 7] [mM] | Additive Salt Solubility (wt.-%) [1, 7] [wt.-%] | Solubility [2] [mM] | Solubility (Wt. %) [2] [Wt. %] | Cs content (FES) in the electrolyte solution ([3]; 10 wt-% LiPF5 in EC/EMC (1:1, wt./wt.)) [wt.-%] | solubility in water ([4]; 0° C.) [g/100 mL] | solubility in water ([4]; 25° C.) [g/100 mL] | Solubility ([2]; solvent PC) [mM] | Solubility (Wt. %) ([2]; solvent PC) | Cs content (FES) in the electrolyte solution ([3]; 11 wt.-% LiBOB in EC/EMC (1:1, wt./wt.)) [wt.-%] | Solubility ([2]; solvent EC/DMC (1:1)) [mM] | Solubility (Wt. %) ([2]; solvent EC/DMC (1:1)) | Solubility ([2]; solvent NMP) [mM] | Solubility (Wt. %) ([2]; solvent NMP) | Thermal stability (onset of thermal decomposition) [5] [°C]
O=C1O[B-]2(OC1=O)OC(=O)C(=O)O2.[Rb+] [RbBOB] | 1 | 0.03 | 40 | 1.2 | 30 | 0.64 |  |  |  |  |  |  |  |  |  |  | 
[Cs+].[O-][Cl+3]([O-])([O-])[O-] [CsClO4, cesium perchlorate] | 5 | 0.12 | 40 | 0.9 |  |  | 0.07 | 0.8 | 1.97 | 70 | 1.3 |  |  |  |  |  | 
O=C1CC(=O)O[B-]2(O1)OC(=O)CC(=O)O2.[Cs+] [CsBMB] |  |  |  |  | 50 | 1.8 |  |  |  |  |  |  |  |  |  |  | 
O=C1O[B-]2(OC1=O)OC(=O)C(=O)O2.[Cs+] [CsBOB, Cesium bis(oxalato)borate] | 4 | 0.12 | 40 | 1.2 |  |  |  |  |  | 60 | 1.5 | 0.05 | 70 | 1.8 | 270 | 7.9 | 290
